Measured values from the NIST ThermoML archive (doi:10.1016/j.fluid.2015.12.029).
Numbers after ± are expanded uncertainties.

Tests used:
[1] = Liquid; for mass density: 298.15 K, 101.33 kPa, Vibrating tube method; for vapor or sublimation pressure: Ebulliometric method (Recirculating still)
[2] = Boiling temperature at pressure P; conditions: Liquid, Ebulliometric method (Recirculating still)

CCOC(=O)C(C)O (racemic) [DL-ethyl lactate]
mass density [1]: 1028.08 ± 0.1 kg/m3
vapor or sublimation pressure ([1]; 396.91 K): 40 ± 0.28 kPa
vapor or sublimation pressure ([1]; 405.49 K): 53.33 ± 0.43 kPa
vapor or sublimation pressure ([1]; 412.44 K): 66.66 ± 0.5 kPa
vapor or sublimation pressure ([1]; 418.34 K): 79.99 ± 0.6 kPa
vapor or sublimation pressure ([1]; 423.47 K): 93.32 ± 0.7 kPa
vapor or sublimation pressure ([1]; 426.1 K): 101.3 ± 0.76 kPa
Boiling temperature at pressure P ([2]; 40 kPa): 123.76 ± 0.08 °C
Boiling temperature at pressure P ([2]; 53.33 kPa): 132.34 ± 0.08 °C
Boiling temperature at pressure P ([2]; 66.66 kPa): 139.29 ± 0.07 °C
Boiling temperature at pressure P ([2]; 79.99 kPa): 145.19 ± 0.07 °C
Boiling temperature at pressure P ([2]; 93.32 kPa): 150.32 ± 0.07 °C
Boiling temperature at pressure P ([2]; 101.3 kPa): 153.0 ± 0.07 °C

CO [methanol]
mass density [1]: 786.56 ± 0.12 kg/m3
vapor or sublimation pressure ([1]; 315.49 K): 40 ± 0.22 kPa
vapor or sublimation pressure ([1]; 321.98 K): 53.33 ± 0.32 kPa
vapor or sublimation pressure ([1]; 327.23 K): 66.66 ± 0.4 kPa
vapor or sublimation pressure ([1]; 331.66 K): 79.99 ± 0.48 kPa
vapor or sublimation pressure ([1]; 335.51 K): 93.32 ± 0.56 kPa
vapor or sublimation pressure ([1]; 337.6 K): 101.3 ± 0.61 kPa
Boiling temperature at pressure P ([2]; 40 kPa): 42.34 ± 0.07 °C
Boiling temperature at pressure P ([2]; 53.33 kPa): 48.83 ± 0.07 °C
Boiling temperature at pressure P ([2]; 66.66 kPa): 54.08 ± 0.07 °C
Boiling temperature at pressure P ([2]; 79.99 kPa): 58.51 ± 0.07 °C
Boiling temperature at pressure P ([2]; 93.32 kPa): 62.36 ± 0.06 °C
Boiling temperature at pressure P ([2]; 101.3 kPa): 64.5 ± 0.06 °C

COC(C)=O [methyl ethanoate]
mass density [1]: 927.1 ± 0.07 kg/m3
vapor or sublimation pressure ([1]; 305.65 K): 40 ± 0.24 kPa
vapor or sublimation pressure ([1]; 312.68 K): 53.33 ± 0.35 kPa
vapor or sublimation pressure ([1]; 318.45 K): 66.66 ± 0.43 kPa
vapor or sublimation pressure ([1]; 323.36 K): 79.99 ± 0.52 kPa
vapor or sublimation pressure ([1]; 327.68 K): 93.32 ± 0.61 kPa
vapor or sublimation pressure ([1]; 330.04 K): 101.3 ± 0.66 kPa
Boiling temperature at pressure P ([2]; 40 kPa): 32.50 ± 0.08 °C
Boiling temperature at pressure P ([2]; 53.33 kPa): 39.53 ± 0.07 °C
Boiling temperature at pressure P ([2]; 66.66 kPa): 45.30 ± 0.07 °C
Boiling temperature at pressure P ([2]; 79.99 kPa): 50.21 ± 0.07 °C
Boiling temperature at pressure P ([2]; 93.32 kPa): 54.53 ± 0.07 °C
Boiling temperature at pressure P ([2]; 101.3 kPa): 56.89 ± 0.07 °C
